Test results: US20200061054A1, “USE OF DIANHYDROGALACTITOL OR ANALOGS AND DERIVATIVES IN COMBINATION WITH A P53 MODULATOR OR A PARP INHIBITOR” (Del Mar Pharmaceuticals (BC) Ltd., priority 2017, published 2020)
Entries after “also recorded” stand apart in the source; their conditions may differ.

Legend:
A2780 cells = assay: 5-day MTT cytotoxic assay, combination of VAL-083 with non-DNA targeting agents (p53 modulators); assay type: cell-based; conditions: for superadditivity / synergy in combination with VAL-083 (in words): A2780 (wild-type p53), 5-day MTT, agent combined with VAL-083, FIGS. 3-5
Description: Additive effect of [drug A+drug B]=FaA+(1−FaA)FaB
where FaA or FaB=fraction of cells affected (Fa) by drug A or B alone. Data, where appropriate, are provided as Mean±SE of N=3 or greater.

[1] = test system: p53-dependent response in A2780; assay: Immunoblots 24 hr after drug exposure, p53-dependent response; assay type: cell-based; conditions: A2780, in combination with VAL-083 (DAG), FIGS. 6A and 6B
Method: For Western blotting, cells were lysed in EBC buffer (50 mM Tris-HCl, pH 8.0, 120 mM NaCl, 1% NP-40, and 1 mM EDTA) supplemented with phosphatase inhibitor and protease inhibitor. Cellular proteins were separated by SDS-PAGE and transferred onto PVDF membrane. After incubation with blocking buffer for 1 h, the membranes were incubated with designated primary antibodies overnight at 4° C. Then, Membranes were washed three times for 10 min and incubated with horseradish peroxidase-conjugated anti-mouse or anti-rabbit antibodies for 1-2 h. Membranes were washed with TBST three times and developed with ECL system (Pierce) according to the manufacturer's instruction.

[2] = test system: Ovarian A2780 tumor cells; assay: 5-day MTT cytotoxicity, VAL-083 and/or PARP inhibitor, control siRNA cells (no BRCA1 kd); assay type: cell-based; conditions: A2780, in combination with dianhydrogalactitol (VAL-083)
Method: (§1) Cytotoxicity was determined by MTT assay using the standard 5-day drug exposure protocol.
(§2) Ovarian A2780 tumor cells were treated with control or BRCA1 siRNA in 6-well plates and 24 hr later were washed, typsinized and aliquoted to 96-well plates. […] After 5 days, the cells are processed for the MTT assay.

[3] = test system: A2780 cells with BRCA1 knockdown; assay: 5-day MTT cytotoxicity, VAL-083 and/or PARP inhibitor, BRCA1-siRNA treated cells; conditions: A2780, BRCA1 siRNA vs control siRNA, based on inspection of Fa data
Method: as §1, §2

[4] = test system: ovarian cancer cell lines (A2780, A2780 p53-/-, 2780CP, OVCAR10, HEY, OVCA-433); conditions: wild type p53, p53 knocked out and mutant p53 lines; previously shown; cited from earlier work

With `Nc1cc(C(F)(F)F)c(-c2cc(N3CCOCC3)nc(N3CCOCC3)n2)cn1` [BKM120] the “superadditivity / synergy in combination with VAL-083 (in words)” value (from here on “superadditivity / synergy in combination”) (A2780 cells) was “did not result in superadditive activity”.
With `Cc1ncc(Cl)cc1NCc1ccc(C(=O)N[C@@H](CC2CCCC2)C(=O)NC2CC2)s1` [GSK2830371, (S)-5-(((5-Chloro-2-methylpyridin-3-yl)amino)methyl)-N-(3-cyclopentyl-1-(cyclopropylamino)-1-oxopropan-2-yl)thiophene-2-carboxamide] the “superadditivity / synergy in combination” value (A2780 cells) was “substantial superadditivity and/or synergy” and the “upregulation of p53-dependent response (in words)” value [1] was “synergistic upregulation of p53-dependent response”.
With `Cc1sc2c(c1C)C(c1ccc(Cl)cc1)=N[C@@H](CC(=O)OC(C)(C)C)c1nnc(C)n1-2` [JQ1] the “superadditivity / synergy in combination” value (A2780 cells) was “did not result in superadditive activity”.
In the case of `C=CCn1c(=O)c2cnc(Nc3ccc(N4CCN(C)CC4)cc3)nc2n1-c1cccc(C(C)(C)O)n1` [MK1775], the “superadditivity / synergy in combination” value (A2780 cells) is reported as “did not result in superadditive activity”.
For `O=C(c1cc(Cc2n[nH]c(=O)c3ccccc23)ccc1F)N1CCN(C(=O)C2CC2)CC1` [Olaparib, olaparib], the “superadditivity of PARP inhibitor combined with VAL-083 (in words)” value [2] was “super-additivity”.
With `CNCc1ccc(-c2[nH]c3cc(F)cc4c3c2CCNC4=O)cc1` [Rucaparib, rucaparib] the “increase in cellular sensitivity by BRCA1 knockdown (kd)” value [3] was roughly 3.0 fold.
For `O[C@H]([C@H](O)[C@@H]1CO1)[C@H]1CO1` [VAL-083, dianhydrogalactitol], the “activity in ovarian cancer cell lines (in words)” value [4] is listed as “active in all cell lines tested”.
In the case of `C[C@]1(c2nc3c(C(N)=O)cccc3[nH]2)CCCN1` [Veliparib, veliparib], the “superadditivity of PARP inhibitor combined with VAL-083 (in words)” value [2] is reported as “not as effective”.
In the case of `COc1ccc(C2=N[C@@H](c3ccc(Cl)cc3)[C@@H](c3ccc(Cl)cc3)N2C(=O)N2CCNC(=O)C2)c(OC(C)C)c1` [nutlin-3a, 4-[[(4S,5R)-4,5-Bis(4-chlorophenyl)-2-(2-isopropoxy-4-methoxyphenyl)-4,5-dihydroimidazol-1-yl]carbonyl]piperazin-2-one], the “superadditivity / synergy in combination” value (A2780 cells) is reported as “substantial superadditivity and/or synergy; also recorded: augmented the activity of dianhydrogalactitol”, the combination index (A2780 cells; A2780, nutlin-3a with VAL-083, range over ED75-ED95 (Table 3)) is reported as 0.10-0.15 and the “upregulation of p53-dependent response (in words)” value [1] is reported as “synergistic upregulation of p53-dependent response”.
